Measured values taken from patent publication US12422660B2, “Microscope for imaging samples within wells of multi-well plates hold by stage and beam homogenizer for homogenizing beam” (QUIVER HOLDINGS INC., priority 2020, dated 2025).
Entries after “also recorded” stand apart in the source; their conditions may differ.

What was measured:
[1] = tested on: iPSC-derived excitatory cortical neurons (NGN2) with LOF mutation (knockout/KO); assay: Optopatch multi-dimensional analysis of disease phenotype reversal and side effects; type: cell-based, human; settings: for cell behavior projected onto phenotype/side effect space: KO cells, 8 concentrations from 0.28 to 600 μM, increasing concentration; for reversal of functional phenotype (WT vs KO), radar plot: KO neurons, 30 days in culture
Description: In compound screening, multidimensional data may be reduced to a few parameters that can be used to rank and select compounds to advance. In disease modeling, for example, one uses hiPSC-derived neurons from patients and healthy controls, and screens for compounds that induce the disease cells to behave like healthy cells. The dimensionality reduction is described in FIG. 27-FIG. 29.
FIG. 27-FIG. 29 show multi-dimensional analysis with iPSC-derived excitatory cortical neurons (NGN2), 30 days in culture.
FIG. 27 is Radar plot showing a select subset of parameters normalized to values for wildtype (WT) neurons. […] The difference between WT and KO traces is the functional phenotype.
FIG. 28 is a diagram illustrating phenotype reversal and “side effects.” In the ˜300-dimensional space of recorded parameters, only two of which are shown, WT wells are clustered and KO wells are clustered. The vector between these populations represents the phenotype (red). Drug effects (blue) are deconstructed into components along (phenotype reversal) and orthogonal to (side effects) the phenotype vector. An ideal drug would undo the effects of the mutation and move the well from the KO cloud to the WT cloud.
FIG. 29 is a plot showing many wells projected onto the phenotype/side effect space. WT and KO wells are well separated along the phenotype direction. Application of the two compounds (8 concentrations from 0.28 to 600 μM) from FIG. 27 have increasing effects on KO cell behavior as the concentration increases. […] The connected drug points are in order of increasing concentration, and the two lines are experimental replicates on two consecutive weeks of experiment.

[2] = tested on: hiPSC-derived motor neurons; assay: Optopatch intrinsic excitability and pharmacological response, before and after compound addition; type: cell-based, human; settings: 1 μM, before vs after addition, blue light stimulus
Description: Firefly image with overlay (colored regions) of hiPSC-derived motor neurons are identified by automated analysis.
Example voltage recordings from selected cells, and the blue stimulus used to evoke firing: steps, pulse trains, and ramps are shown. […]
FIG. 21 is a raster plot where each point is an identified action potential and each row is a neuron from a single FOV.
Analysis overview: FIGS. 19-26 show the automated analysis workflow for measurements of intrinsic excitability and pharmacological response in hiPSC-derived motor neurons. Neurons are interrogated with a stimulus protocol (blue) designed to probe a broad range of spiking behaviors. All pixels capturing fluorescence from one neuron co-vary in time following that cell's unique firing pattern (FIG. 20). The temporal covariance is used to generate a weight mask for each cell (colored regions in FIG. 19); masked pixels are averaged for each frame in the movie to calculate the voltage traces. Each FOV was recorded twice, before and after addition of potassium channel opener ML213. […] From the fluorescence-time traces, each action potential in the dataset is identified (FIG. 21), and firing rate (FIG. 22), spike shape parameters (FIG. 23) and relative timings (FIG. 24 & FIG. 25) are measured as a function of stimulus. […]

[3] = tested on: E18 rat hippocampal neurons; assay: Optopatch pharmacology and high-throughput validation on 96-well Firefly; type: cell-based; settings: for firing rate: 1 μM, 96-well plate, alternating columns vs vehicle; for drug-induced change in neuronal spiking behavior: neurons cultured 14 days, vehicle normalized to 1
Protocol: Concentration response curves are readily measured with the Optopatch platform (FIG. 31). All compounds show large effect sizes and good repeatability on two independent plates. Each symbol represents>100 cells in one well. All the data shown were measured in a single day.
The system is also approaching readiness for high-throughput drug screening. To test system uniformity and repeatability, ML-213 is added to alternating columns in a 96-well plate (FIG. 32-FIG. 37). The change in spike rate during the ramp is readily visible in each well and is uniform across the plate (FIG. 34-35). Using one parameter, number of spikes during the ramp, the Z′ of 0.31 indicates a failed call in 1 of 73,000 wells, sufficient for screening tens of thousands of compounds for phenotypic screens in neurons. There was a small drift in time as wells were read out serially at room temperature (FIG. 36). Recent improvements in automation control software have reduced the scan time per FOV from 30 seconds to 10 seconds, which will reduce scan time artifacts. Furthermore, the microscope will have a 5× increased imaging area, reducing the number of FOVs per well to 1 and further increasing screening speed.
FIGS. 30 & 31 show pharmacology e.g., with E18 rat hippocampal neurons cultured 14 days.
FIG. 30 is radar plots showing the drug-induced change in neuronal spiking behavior along many dimensions, tabulated at right. For each parameter, the vehicle is normalized to 1 (green); drug effects in orange.
FIG. 32-FIG. 37 show high-throughput validation for screening with E18 rat hippocampal neurons cultured for 14 days.
The blue light stimulus is shown below.

`Nc1ccncc1` [4-AP] was tested, and the “cell behavior projected onto phenotype/side effect space” value [1] was “moves cell behavior toward and beyond WT behavior” and the “reversal of functional phenotype (WT vs KO), radar plot” value [1] was “substantially reversed the phenotype”.

For `Cc1cc(C)c(NC(=O)C2CC3CCC2C3)c(C)c1` (stereo not drawn) [ML213], the “neuronal excitability / firing” value [2] was “suppresses firing; also recorded: clear reduction in neuronal excitability”, the firing rate [3] was “dramatically reduces firing rate in all wells tested” and the firing rate ([3]; listed as ML-213) was “reduces firing”. For the same compound, the “drug-induced change in neuronal spiking behavior” value [3] was “drive behavior in opposite directions”.

For `O=C1c2ccccc2C(Cc2ccncc2)(Cc2ccncc2)c2ccccc21` [XE-991], the “drug-induced change in neuronal spiking behavior” value [3] was “drive behavior in opposite directions”.

With `Nc1nnc(-c2cccc(Cl)c2Cl)c(N)n1` [lamotrigine] the “cell behavior projected onto phenotype/side effect space” value [1] was “moves behavior away from both WT and KO” and the “reversal of functional phenotype (WT vs KO), radar plot” value [1] was “perturbed behavior but did not reverse the phenotype”.
